Key:
Factor D = experiment: Phase 2a study: Factor D levels in serum; assay type: in vivo, human; conditions: 14-day treatment, patients A-F
Method: Systemic complement proteins were measured in serum and plasma including serum Ba, plasma Bb, serum C3, serum Factor D, serum C4, and % Fragment C3.
Factor D levels in serum were measured using a quantitative sandwich enzyme immunoassay technique. A monoclonal antibody specific for human Complement Factor D was pre-coated onto a micro-assay plate. Standards and samples were pipetted into the wells and any Complement Factor D present was bound by the immobilized antibody. After washing away any unbound substances, an enzyme-linked polyclonal antibody specific for human Complement Factor D was added to the wells. Following a wash to remove any unbound antibody-enzyme reagent, a substrate solution was added to the wells and color develops in proportion to the amount of Complement Factor D bound in the initial step. The color development was stopped and the intensity of the color was measured spectrophotometrically at 450 nm.

[1] = Phase 2a study in C3G / IC-MPGN patients: urine albumin-to-creatinine ratio (ACR); conditions: for ACR GEOMEAN / ACR MEAN: patients A-F;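 on all read-outs here: urine samples from C3G or IC-MPGN patients read by central lab dipstick on automated urine chemistry analyzer, ratio computed from albumin and creatinine pad absorbance, healthy volunteer urine as control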
Text: 10 patients with either C3 Glomerulopathy (C3G) or Immune-Complex Membranoproliferative Glomerulonephritis (IC-MPGN) are to be enrolled across two dose groups. […] Inclusion criteria include a clinical diagnosis of C3G (C3 glomerulonephritis [C3GN] or dense deposit disease [DDD], the 2 types of C3G) or idiopathic immune-complex membranoproliferative glomerulonephritis (IC-MPGN) by renal biopsy for at least 3 months prior to dosing, with the pathologic diagnosis verified by review of the renal biopsy by the study central pathologist. Patients must have low C3 levels (<50% of the lower limit of normal) and normal or near-normal C4 levels (>90% of the lower limit of normal). Group 1 has enrolled 2 out of 2 planned patients and Group 2 has enrolled 4 out of 8 planned patients.
Albumin and creatinine levels were measured in urine samples by a central reference lab using a urine dipstick method. Urine from non-study healthy volunteers served as control samples. An automatic urinary chemical analyzer was used with a dye for the detection of albumin at >8 mg/dL. Also present on the dipstick was a pad for detection of creatinine that uses the peroxidase activity of the copper-creatinine complex. The ACR ratio was automatically calculated by the analyzer based on the light absorbent readings of the albumin and creatinine test pads.

For `CC(=O)c1nn(CC(=O)N2C[C@H](F)C[C@H]2C(=O)Nc2cccc(Br)n2)c2ccc(-c3cnc(C)nc3)cc12` [Compound 1, (2S,4R)-1-(2-(3-acetyl-5-(2-methylpyrimidin-5-yl)-1H-indazol-1-yl)acetyl)-N-(6-bromopyridin-2-yl)-4-fluoropyrrolidine-2-carboxamide], the “Serum Factor D” value (Factor D) was “remained unchanged”, the ACR ([1]; Patient A, 100 mg TID, Day 1/0 Hour) was 259 mg/mmol and the ACR ([1]; Patient A, 100 mg TID, Day 4) was 218 mg/mmol. It also gave an ACR ([1]; Patient A, 100 mg TID, Day 7/0 Hour) of 233 mg/mmol, an ACR ([1]; Patient A, 100 mg TID, Day 10) of 228 mg/mmol and an ACR ([1]; Patient A, 100 mg TID, Day 14) of 175 mg/mmol. For the same molecule, the ACR ([1]; Patient A, 100 mg TID, Day 15 Taper) was 144 mg/mmol, the ACR ([1]; Patient A, 100 mg TID, Day 16 Taper) was 143 mg/mmol and the ACR ([1]; Patient A, 100 mg TID, Day 17 Taper) was 115 mg/mmol. The ACR ([1]; Patient A, 100 mg TID, Day 21 Taper) was 140 mg/mmol, the ACR ([1]; Patient A, 100 mg TID, Follow-Up Day 24) was 138 mg/mmol and the ACR ([1]; Patient A, 100 mg TID, Follow-Up Day 28) was 132 mg/mmol. It also gave an ACR ([1]; Patient A, 100 mg TID, Follow-Up Day 35) of 160 mg/mmol, an ACR ([1]; Patient A, 100 mg TID, Follow-Up Day 49) of 147 mg/mmol and an ACR ([1]; Patient A, 100 mg TID, Screen) of 228 mg/mmol. The ACR ([1]; Patient B, 100 mg TID, Day 1/0 Hour) was 580 mg/mmol, the ACR ([1]; Patient B, 100 mg TID, Day 4) was 264 mg/mmol and the ACR ([1]; Patient B, 100 mg TID, Day 7/0 Hour) was 249 mg/mmol. The ACR ([1]; Patient B, 100 mg TID, Day 10) was 253 mg/mmol, the ACR ([1]; Patient B, 100 mg TID, Day 14) was 343 mg/mmol and the ACR ([1]; Patient B, 100 mg TID, Day 15 Taper) was 325 mg/mmol. The ACR ([1]; Patient B, 100 mg TID, Day 16 Taper) was 329 mg/mmol, the ACR ([1]; Patient B, 100 mg TID, Day 17 Taper) was 263 mg/mmol and the ACR ([1]; Patient B, 100 mg TID, Day 21 Taper) was 373 mg/mmol. The ACR ([1]; Patient B, 100 mg TID, Follow-Up Day 24) was 469 mg/mmol, the ACR ([1]; Patient B, 100 mg TID, Follow-Up Day 28) was 381 mg/mmol and the ACR ([1]; Patient B, 100 mg TID, Follow-Up Day 49) was 140 mg/mmol. The ACR ([1]; Patient B, 100 mg TID, Screen) was 486 mg/mmol, the ACR ([1]; Patient C, 200 mg TID, Day 1/0 Hour) was 58 mg/mmol and the ACR ([1]; Patient C, 200 mg TID, Day 4) was 27 mg/mmol. It also gave an ACR ([1]; Patient C, 200 mg TID, Day 7/0 Hour) of 22 mg/mmol, an ACR ([1]; Patient C, 200 mg TID, Day 10) of 35 mg/mmol and an ACR ([1]; Patient C, 200 mg TID, Day 14) of 30 mg/mmol. For the same molecule, the ACR ([1]; Patient C, 200 mg TID, Day 15 Taper) was 44 mg/mmol, the ACR ([1]; Patient C, 200 mg TID, Day 16 Taper) was 26 mg/mmol and the ACR ([1]; Patient C, 200 mg TID, Day 17 Taper) was 32 mg/mmol. It also gave an ACR ([1]; Patient C, 200 mg TID, Day 21 Taper) of 23 mg/mmol, an ACR ([1]; Patient C, 200 mg TID, Follow-Up Day 24) of 32 mg/mmol and an ACR ([1]; Patient C, 200 mg TID, Follow-Up Day 28) of 47 mg/mmol. For the same molecule, the ACR ([1]; Patient C, 200 mg TID, Follow-Up Day 49) was 20 mg/mmol, the ACR ([1]; Patient C, 200 mg TID, Screen) was 44 mg/mmol and the ACR ([1]; Patient C, 200 mg TID, Screen 1) was 128 mg/mmol. The ACR ([1]; Patient D, 200 mg TID, Day 1/0 Hour) was 224 mg/mmol, the ACR ([1]; Patient D, 200 mg TID, Day 4) was 279 mg/mmol and the ACR ([1]; Patient D, 200 mg TID, Day 7/0 Hour) was 322 mg/mmol. For the same molecule, the ACR ([1]; Patient D, 200 mg TID, Day 10) was 648 mg/mmol, the ACR ([1]; Patient D, 200 mg TID, Day 14) was 286 mg/mmol and the ACR ([1]; Patient D, 200 mg TID, Day 15 Taper) was 328 mg/mmol. For the same molecule, the ACR ([1]; Patient D, 200 mg TID, Day 17 Taper) was 586 mg/mmol, the ACR ([1]; Patient D, 200 mg TID, Day 21 Taper) was 564 mg/mmol and the ACR ([1]; Patient D, 200 mg TID, Follow-Up Day 24) was 282 mg/mmol. For the same molecule, the ACR ([1]; Patient D, 200 mg TID, Follow-Up Day 28) was 577 mg/mmol, the ACR ([1]; Patient D, 200 mg TID, Follow-Up Day 35) was 398 mg/mmol and the ACR ([1]; Patient D, 200 mg TID, Follow-Up Day 49) was 636 mg/mmol. The ACR ([1]; Patient D, 200 mg TID, Screen) was 579 mg/mmol, the ACR ([1]; Patient D, 200 mg TID, Screen 1) was 160 mg/mmol and the ACR ([1]; Patient E, 200 mg TID, Day 1/0 Hour) was 424 mg/mmol. The ACR ([1]; Patient E, 200 mg TID, Day 4) was 418 mg/mmol, the ACR ([1]; Patient E, 200 mg TID, Day 7/0 Hour) was 533 mg/mmol and the ACR ([1]; Patient E, 200 mg TID, Day 10) was 625 mg/mmol. The ACR ([1]; Patient E, 200 mg TID, Day 14) was 264 mg/mmol, the ACR ([1]; Patient E, 200 mg TID, Day 15 Taper) was 327 mg/mmol and the ACR ([1]; Patient E, 200 mg TID, Day 16 Taper) was 277 mg/mmol. It also gave an ACR ([1]; Patient E, 200 mg TID, Day 17 Taper) of 475 mg/mmol, an ACR ([1]; Patient E, 200 mg TID, Day 21 Taper) of 257 mg/mmol and an ACR ([1]; Patient E, 200 mg TID, Follow-Up Day 24) of 303 mg/mmol. The ACR ([1]; Patient E, 200 mg TID, Follow-Up Day 28) was 307 mg/mmol, the ACR ([1]; Patient E, 200 mg TID, Follow-Up Day 49) was 327 mg/mmol and the ACR ([1]; Patient F, 200 mg TID, Day 4) was 152 mg/mmol. The ACR ([1]; Patient F, 200 mg TID, Day 7/0 Hour) was 94 mg/mmol, the ACR ([1]; Patient F, 200 mg TID, Day 14) was 184 mg/mmol and the ACR ([1]; Patient F, 200 mg TID, Day 15 Taper) was 720 mg/mmol. For the same molecule, the ACR ([1]; Patient F, 200 mg TID, Day 16 Taper) was 235 mg/mmol, the ACR ([1]; Patient F, 200 mg TID, Day 17 Taper) was 475 mg/mmol and the ACR ([1]; Patient F, 200 mg TID, Day 21 Taper) was 348 mg/mmol. The ACR ([1]; Patient F, 200 mg TID, Follow-Up Day 24) was 279 mg/mmol, the ACR ([1]; Patient F, 200 mg TID, Follow-Up Day 28) was 253 mg/mmol and the ACR ([1]; Patient F, 200 mg TID, Follow-Up Day 35) was 168 mg/mmol. For the same molecule, the ACR ([1]; Patient F, 200 mg TID, Follow-Up Day 49) was 564 mg/mmol, the ACR ([1]; Patient F, 200 mg TID, Screen) was 308 mg/mmol and the “reductions in ACR” value ([1]; Patients A, B, C, E, and F, two-week treatment) was “approximately 50%”. For the same molecule, the “ACR GEOMEAN” value ([1]; Day 1/0 Hour) was 249.6 mg/mmol, the “ACR MEAN” value ([1]; Day 1/0 Hour) was 306.4 mg/mmol and the “ACR GEOMEAN” value ([1]; Day 4) was 174.0 mg/mmol. The “ACR MEAN” value ([1]; Day 4) was 226.3 mg/mmol, the “ACR GEOMEAN” value ([1]; Day 7/0 Hour) was 164.9 mg/mmol and the “ACR MEAN” value ([1]; Day 7/0 Hour) was 242.1 mg/mmol. The “ACR GEOMEAN” value ([1]; Day 14) was 171.4 mg/mmol, the “ACR MEAN” value ([1]; Day 14) was 213.8 mg/mmol and the “ACR GEOMEAN” value ([1]; Day 15 Taper) was 232.4 mg/mmol. For the same molecule, the “ACR MEAN” value ([1]; Day 15 Taper) was 314.6 mg/mmol, the “ACR GEOMEAN” value ([1]; Day 17 Taper) was 224.2 mg/mmol and the “ACR MEAN” value ([1]; Day 17 Taper) was 324.2 mg/mmol. The “ACR GEOMEAN” value ([1]; Day 21 Taper) was 197.9 mg/mmol, the “ACR MEAN” value ([1]; Day 21 Taper) was 284.0 mg/mmol and the “ACR GEOMEAN” value ([1]; Follow-Up Day 24) was 191.6 mg/mmol. The “ACR MEAN” value ([1]; Follow-Up Day 24) was 250.6 mg/mmol, the “ACR GEOMEAN” value ([1]; Follow-Up Day 28) was 217.5 mg/mmol and the “ACR MEAN” value ([1]; Follow-Up Day 28) was 282.6 mg/mmol. The “ACR GEOMEAN” value ([1]; Follow-Up Day 49) was 191.1 mg/mmol and the “ACR MEAN” value ([1]; Follow-Up Day 49) was 305.6 mg/mmol.

— patent US20210215714A1, “COMPLEMENT ALTERNATIVE PATHWAY-ASSOCIATED NEPHROPATHY BIOMARKERS” (Achillion Pharmaceuticals, Inc., priority 2018, published 2021)
